From patent publication US8247211B2, “Glycopeptide antibiotics” (American Cyanamid Company, priority 2001, dated 2012)
Values after ≈ are worked out from the molar mass of the structure shown.

Tests used:
Experiment in all cases: In vitro antibacterial evaluation: minimum inhibitory concentration (MIC), broth dilution method
Format in all cases: cell-based
Staphylococcus sp. = conditions: 18 hours at 35° C.
How it was run: (§1)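 Broth dilution per NCCLS M7-A2 in Muller-Hinton II […], inoculum 5×10^5 CFU/mL, antibiotic tested over 64-0.06 μg/mL. MIC is taken as the lowest concentration that inhibits growth. Panel includes recent clinical isolates resistant to methicillin, penicillin and/or vancomycin.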

Escherichia coli = Escherichia coli (GC 4560); 18 hours at 35° C.
How it was run: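 Test strains, among them recent clinical isolates carrying methicillin, penicillin and/or vancomycin resistance, were inoculated at 5×10^5 CFU/mL. A broth dilution series spanning 64-0.06 μg/mL in Muller-Hinton II […] (NCCLS M7-A2) defined the MIC as the lowest growth-inhibiting concentration.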

Enterococcus sp. = conditions: 18 hours at 35° C.
How it was run: as §1

Streptococcus sp. = conditions: 18 hours at 35° C.
How it was run: as §1

[1] = broth dilution, inoculum 5×10^5 CFU/mL

- MIC Coagulase Negative Staphylococcus (GC 4547) (Staphylococcus sp.; Coagulase Negative Staphylococcus (GC 4547)): 4 µg/mL (≈ 2.73 µM)
- MIC Coagulase Negative Staphylococcus (GC 4548) (Staphylococcus sp.; Coagulase Negative Staphylococcus (GC 4548)): 2 µg/mL (≈ 1.36 µM)
- MIC Coagulase Negative Staphylococcus (GC 4549) (Staphylococcus sp.; Coagulase Negative Staphylococcus (GC 4549)): 2 µg/mL (≈ 1.36 µM)
- MIC Coagulase Negative Staphylococcus (GC 4551) (Staphylococcus sp.; Coagulase Negative Staphylococcus (GC 4551)): 2 µg/mL (≈ 1.36 µM)
- MIC Coagulase Negative Staphylococcus (GC 6257) (Staphylococcus sp.; Coagulase Negative Staphylococcus (GC 6257)): 2 µg/mL (≈ 1.36 µM)
- MIC Staphylococcus aureus (ATCC 29213) (Staphylococcus sp.; Staphylococcus aureus (ATCC 29213)): 4 µg/mL (≈ 2.73 µM)
- MIC Staphylococcus aureus (GC 1131) (Staphylococcus sp.; Staphylococcus aureus (GC 1131)): 4 µg/mL (≈ 2.73 µM)
- MIC Staphylococcus aureus (GC 3051) (Staphylococcus sp.; Staphylococcus aureus (GC 3051)): 0.5 µg/mL (≈ 0.341 µM)
- MIC Staphylococcus aureus (GC 3053) (Staphylococcus sp.; Staphylococcus aureus (GC 3053)): 4 µg/mL (≈ 2.73 µM)
- MIC Staphylococcus aureus (GC 4541) (Staphylococcus sp.; Staphylococcus aureus (GC 4541)): 1 µg/mL (≈ 0.682 µM)
- MIC Staphylococcus aureus (GC 4542) (Staphylococcus sp.; Staphylococcus aureus (GC 4542)): 2 µg/mL (≈ 1.36 µM)
- MIC Staphylococcus aureus (GC 4544) (Staphylococcus sp.; Staphylococcus aureus (GC 4544)): 4 µg/mL (≈ 2.73 µM)
- MIC Staphylococcus aureus (GC 4545) (Staphylococcus sp.; Staphylococcus aureus (GC 4545)): 4 µg/mL (≈ 2.73 µM)
- MIC Staphylococcus aureus-SMITH (GC 4543) (Staphylococcus sp.; Staphylococcus aureus-SMITH (GC 4543)): 2 µg/mL (≈ 1.36 µM)
- MIC Escherichia coli (GC 4560) (Escherichia coli): 2 µg/mL (≈ 1.36 µM)
- MIC Enterococcus avium (GC 4558) (Enterococcus sp.; Enterococcus avium (GC 4558)): 4 µg/mL (≈ 2.73 µM)
- MIC Enterococcus faecalis (ATCC 29212) (Enterococcus sp.; Enterococcus faecalis (ATCC 29212)): 16 µg/mL (≈ 10.9 µM)
- MIC Enterococcus faecalis (GC 2242) (Enterococcus sp.; Enterococcus faecalis (GC 2242)): 16 µg/mL (≈ 10.9 µM)
- MIC Enterococcus faecalis (GC 2691) (Enterococcus sp.; Enterococcus faecalis (GC 2691)): 8 µg/mL (≈ 5.46 µM)
- MIC Enterococcus faecalis (GC 3059) (Enterococcus sp.; Enterococcus faecalis (GC 3059)): 8 µg/mL (≈ 5.46 µM)
- MIC Enterococcus faecalis (GC 4552) (Enterococcus sp.; Enterococcus faecalis (GC 4552)): 16 µg/mL (≈ 10.9 µM)
- MIC Enterococcus faecalis (GC 4553) (Enterococcus sp.; Enterococcus faecalis (GC 4553)): 16 µg/mL (≈ 10.9 µM)
- MIC Enterococcus faecalis (GC 4554) (Enterococcus sp.; Enterococcus faecalis (GC 4554)): 16 µg/mL (≈ 10.9 µM)
- MIC Enterococcus faecalis (GC 6189) (Enterococcus sp.; Enterococcus faecalis (GC 6189)): 8 µg/mL (≈ 5.46 µM)
- MIC Enterococcus faecium (GC 2243) (Enterococcus sp.; Enterococcus faecium (GC 2243)): 16 µg/mL (≈ 10.9 µM)
- MIC Enterococcus faecium (GC 4556) (Enterococcus sp.; Enterococcus faecium (GC 4556)): 16 µg/mL (≈ 10.9 µM)
- MIC Enterococcus faecium (GC 4557) (Enterococcus sp.; Enterococcus faecium (GC 4557)): 2 µg/mL (≈ 1.36 µM)
- MIC Enterococcus faecalis (GC 2242) (Enterococcus sp.; [1]): 16 µg/mL (≈ 10.9 µM)
- MIC Enterococcus faecalis (GC 2691) (Enterococcus sp.; [1]): 8 µg/mL (≈ 5.46 µM)
- MIC Enterococcus faecalis (GC 3059) (Enterococcus sp.; [1]): 8 µg/mL (≈ 5.46 µM)
- MIC Streptococcus agalactiae (GC 4564) (Streptococcus sp.; Streptococcus agalactiae (GC 4564)): 0.5 µg/mL (≈ 0.341 µM)
- MIC Streptococcus pneumoniae (ATCC 6301) (Streptococcus sp.; Streptococcus pneumoniae (ATCC 6301)): <0.12 µg/mL
- MIC Streptococcus pneumoniae (GC 1894) (Streptococcus sp.; Streptococcus pneumoniae (GC 1894)): <0.12 µg/mL
- MIC Streptococcus pneumoniae (GC 4565) (Streptococcus sp.; Streptococcus pneumoniae (GC 4565)): 0.25 µg/mL (≈ 0.171 µM)
- MIC Streptococcus pyogenes (GC 4563) (Streptococcus sp.; Streptococcus pyogenes (GC 4563)): 0.5 µg/mL (≈ 0.341 µM)
- MIC Streptococcus agalactiae (GC 4564) (Streptococcus sp.; [1]): 0.5 µg/mL (≈ 0.341 µM)
- MIC Streptococcus pneumoniae (ATCC 6301) (Streptococcus sp.; [1]): <0.12 µg/mL
- MIC Streptococcus pneumoniae (GC 1894) (Streptococcus sp.; [1]): <0.12 µg/mL
- MIC Streptococcus pneumoniae (GC 4565) (Streptococcus sp.; [1]): 0.25 µg/mL (≈ 0.171 µM)
- MIC Streptococcus pyogenes (GC 4563) (Streptococcus sp.; [1]): 0.5 µg/mL (≈ 0.341 µM)
Compound: COc1ccc(COCC2OC(OC3C(CO)OC(Oc4ccc(CC5NC(=O)C(C(C)c6ccccc6)NC(=O)CNC(=O)C(CO)NC(=O)C(C(O)C6CNC(=N)N6C6OC(CO)C(O)C(O)C6O)NC(=O)C(C(O)C6CNC(=N)N6)NC5=O)cc4)C(O)C3O)C(O)C(O)C2O)c2ccccc12 (stereo not drawn) [Example 240, Cyclo[glycyl-β-methylphenylalanyl-O-[4-O-[6-O-[(4-methoxy-1-naphthyl)methyl]hexo-pyranosyl]hexopyranosyl]tyrosyl-3-(2-iminoimidazolidin-4-yl)seryl-3-(3-hexopyranosyl-2-iminoimidazolidin-4-yl)serylseryl]]
- MIC Staphylococcus haemolyticus (GC 4546) (Staphylococcus sp.; Staphylococcus haemolyticus (GC 4546)): 2 µg/mL (≈ 1.36 µM)
